EP0326329B1, “Quinazoline derivatives useful as insecticides” (Dow AgroSciences LLC, priority 1988, dated 1989)

Tests used:
Type in all cases: in vivo
[1] = tested on: Pyricularia oryzae (rice blast); details: disease control rating, foliar spray, host rice; 400 ppm (+++ at 100 ppm)
[2] = tested on: Southern corn rootworm (Diabrotica undecimpuctata howardi Barber); test: Mite/insect screen, soil treatment (CRW); details: percent mortality; for mortality at 12 ppm / mortality at 24 ppm: Diabrotica, soil treatment, read-out: CRW RESULTS %; for mortality at 12 ppm: CRW rate 12.00 ppm; for mortality at 24 ppm: CRW rate 24.00 ppm
Procedure, shortened: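 Five 2–3 instar larvae were placed on dry sandy soil with a presoaked corn seed after the soil had received 1 mL of compound solution and dried 6–12 h; cups were kept capped at 23°C. Mortality (%) and phytotoxicity were read after standard exposure. Formulation: acetone/alcohol with emulsifiers, water-diluted.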

[3] = tested on: Botrytis cinerea (gray mold); test: Greenhouse Test 1, foliar spray fungicide screen (GRAY MOLD), host grape berries; details: disease control rating, 400 ppm (+++ at 100 ppm)
[4] = tested on: Erysiphe graminis tritici (powdery mildew); test: Greenhouse Test 1, foliar spray fungicide screen (POWD MDEW), host wheat; details: disease control rating, 400 ppm (+++ at 100 ppm)
[5] = tested on: southern armyworm (Spodopetra eridania Cramer); test: Mite/insect screen, sprayed squash leaves (SAW); details: percent mortality; for mortality at 200 ppm / mortality at 400 ppm: Spodoptera eridania, read-out: SAW RESULTS %
Procedure, shortened: (§1)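 Acetone/alcohol (50:50) + emulsifier blends 23 g/L and 13 g/L; water dilution to test concs. Spray both leaf surfaces to runoff, dry 1 h. For armyworm, 2 excised uninfested leaves into Petri dish with larvae. Readout: % mortality, phytotoxicity.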

[6] = tested on: melon aphids (Aphis gossypii Glover); test: Mite/insect screen, sprayed squash cotyledons (MA); details: percent mortality; for mortality at 200 ppm / mortality at 400 ppm: Aphis gossypii, read-out: MA RESULTS %; for mortality at 200 ppm: spray rate 200 ppm; for mortality at 400 ppm: spray rate 400 ppm
Procedure, shortened: as §1

[7] = tested on: Twospotted spider mites (Tetranychus urticae Koch); test: Mite/insect screen, sprayed squash cotyledons (SM); details: percent mortality; for mortality at 200 ppm / mortality at 400 ppm: Tetranychus urticae, read-out: SM RESULTS %; for mortality at 200 ppm: spray rate 200 ppm; for mortality at 400 ppm: spray rate 400 ppm
Procedure, shortened: as §1

[8] = tested on: Puccinia recondita tritici (leaf rust); test: Greenhouse Test 1, foliar spray fungicide screen (LEAF RUST), host wheat; details: disease control rating, 400 ppm (+++ at 100 ppm)
[9] = tested on: Pseudoperonospora cubensis (downy mildew); test: Greenhouse Test 1, foliar spray fungicide screen (DOWN MDEW), host squash; details: disease control rating, 400 ppm (+++ at 100 ppm)

## Fc1cccc2c(NCCc3ccc(Oc4ccccc4)cc3)ncnc12 [Example 101, 8-fluoro-N-[2-(4-phenoxyphenyl)ethyl]-4-quinazolinamine]
[1]
  RICE BLAST: +++ (+++ = 90-100% control at 100 ppm)
[2]
  mortality at 12 ppm: 100%
  mortality at 24 ppm: 0%
[3]
  GRAY MOLD: ++ (++ = 90-100% control at 400 ppm)
[4]
  POWD MDEW: + (+ = 20-89% control at 400 ppm)
[5]; spray rate 200 ppm
  mortality at 200 ppm: 100%
[5]; spray rate 400 ppm
  mortality at 400 ppm: 0%
[6]
  mortality at 200 ppm: 80%
  mortality at 400 ppm: 100%
[7]
  mortality at 200 ppm: 100%
  mortality at 400 ppm: 100%
[8]
  LEAF RUST: - (- = 0-19% control at 400 ppm)
[9]
  DOWN MDEW: +++ (+++ = 90-100% control at 100 ppm)

## Fc1cccc2c(NCCc3ccc(-c4ccccc4)cc3)ncnc12 [Example 102, 8-fluoro-N-[2-(1,1'-biphenyl)-4-ylethyl]-4-quinazolinamine]
[1]
  RICE BLAST: +++ (+++ = 90-100% control at 100 ppm)
[2]
  mortality at 12 ppm: 0%
  mortality at 24 ppm: 0%
[3]
  GRAY MOLD: ++ (++ = 90-100% control at 400 ppm)
[4]
  POWD MDEW: ++ (++ = 90-100% control at 400 ppm)
[5]; spray rate 200 ppm
  mortality at 200 ppm: 80%
[5]; spray rate 400 ppm
  mortality at 400 ppm: 100%
[6]
  mortality at 200 ppm: 80%
  mortality at 400 ppm: 90%
[7]
  mortality at 200 ppm: 80%
  mortality at 400 ppm: 90%
[8]
  LEAF RUST: +++ (+++ = 90-100% control at 100 ppm)
[9]
  DOWN MDEW: ++ (++ = 90-100% control at 400 ppm)

## Cc1ccccc1CCOc1ncnc2ccccc12 [Example 103, 4-[2-(2-methylphenyl)ethoxy]quinazoline]
[1]
  RICE BLAST: + (+ = 20-89% control at 400 ppm)
[2]
  mortality at 24 ppm: 0%
[3]
  GRAY MOLD: - (- = 0-19% control at 400 ppm)
[4]
  POWD MDEW: + (+ = 20-89% control at 400 ppm)
[5]; spray rate 400 ppm
  mortality at 400 ppm: 0%
[6]
  mortality at 400 ppm: 0%
[7]
  mortality at 400 ppm: 0%
[8]
  LEAF RUST: +++ (+++ = 90-100% control at 100 ppm)
[9]
  DOWN MDEW: + (+ = 20-89% control at 400 ppm)

## c1ccc(Oc2ccc(CCNc3ncnc4ccccc34)cc2)cc1 [Example 104, N-[2-(4-phenoxyphenyl)ethyl]-4-quinazolinamine]
[1]
  RICE BLAST: +++ (+++ = 90-100% control at 100 ppm)
[2]
  mortality at 24 ppm: 100%
[2]; rate not given
  CRW RESULTS %: 0%
[3]
  GRAY MOLD: - (- = 0-19% control at 400 ppm)
[4]
  POWD MDEW: +++ (+++ = 90-100% control at 100 ppm)
[5]; spray rate 400 ppm
  mortality at 400 ppm: 100%
[5]; rate not given
  SAW RESULTS %: 0%
[6]
  mortality at 400 ppm: 0%
[6]; rate not given
  MA RESULTS %: 100%
[7]
  mortality at 400 ppm: 0%
[7]; rate not given
  SM RESULTS %: 100%
[8]
  LEAF RUST: +++ (+++ = 90-100% control at 100 ppm)
[9]
  DOWN MDEW: +++ (+++ = 90-100% control at 100 ppm)

## OC(CNc1ncnc2ccccc12)c1ccc2ccccc2c1 (stereo not drawn) [Example 105, α-[(4-quinazolinylamino)methyl]-2-naphthalenemethanol]
[1]
  RICE BLAST: + (+ = 20-89% control at 400 ppm)
[2]
  mortality at 24 ppm: 0%
[3]
  GRAY MOLD: - (- = 0-19% control at 400 ppm)
[4]
  POWD MDEW: - (- = 0-19% control at 400 ppm)
[5]; spray rate 400 ppm
  mortality at 400 ppm: 0%
[6]
  mortality at 400 ppm: 0%
[7]
  mortality at 400 ppm: 0%
[8]
  LEAF RUST: ++ (++ = 90-100% control at 400 ppm)
[9]
  DOWN MDEW: - (- = 0-19% control at 400 ppm)

## Oc1cccc(CCOc2ncnc3ccccc23)c1 [Example 111, 4-[2-(3-hydroxyphenyl)ethoxy]quinazoline]
[1]
  RICE BLAST: ++ (++ = 90-100% control at 400 ppm)
[2]
  mortality at 12 ppm: 0%
  mortality at 24 ppm: 0%
[3]
  GRAY MOLD: - (- = 0-19% control at 400 ppm)
[4]
  POWD MDEW: - (- = 0-19% control at 400 ppm)
[5]; spray rate 200 ppm
  mortality at 200 ppm: 0%
[5]; spray rate 400 ppm
  mortality at 400 ppm: 0%
[6]
  mortality at 200 ppm: 0%
  mortality at 400 ppm: 0%
[7]
  mortality at 200 ppm: 0%
  mortality at 400 ppm: 0%
[8]
  LEAF RUST: + (+ = 20-89% control at 400 ppm)
[9]
  DOWN MDEW: + (+ = 20-89% control at 400 ppm)

## COc1ccc(CCOc2ncnc3c(F)cccc23)cc1OC [Example 112, 8-fluoro-4-[2-(3,4-dimethoxyphenyl)ethoxy]quinazoline]
[1]
  RICE BLAST: +++ (+++ = 90-100% control at 100 ppm)
[2]
  mortality at 12 ppm: 0%
  mortality at 24 ppm: 0%
[3]
  GRAY MOLD: - (- = 0-19% control at 400 ppm)
[4]
  POWD MDEW: + (+ = 20-89% control at 400 ppm)
[5]; spray rate 200 ppm
  mortality at 200 ppm: 0%
[5]; spray rate 400 ppm
  mortality at 400 ppm: 0%
[6]
  mortality at 200 ppm: 80%
  mortality at 400 ppm: 0%
[7]
  mortality at 200 ppm: 0%
  mortality at 400 ppm: 0%
[8]
  LEAF RUST: +++ (+++ = 90-100% control at 100 ppm)
[9]
  DOWN MDEW: +++ (+++ = 90-100% control at 100 ppm)

## CC(C)Cc1ccc(C(C)COc2ncnc3c(F)cccc23)cc1 (stereo not drawn) [Example 113, 8-fluoro-4-[2-[4-(2-methylpropyl)phenyl]propoxy]quinazoline]
[1]
  RICE BLAST: +++ (+++ = 90-100% control at 100 ppm)
[2]
  mortality at 12 ppm: 0%
  mortality at 24 ppm: 0%
[3]
  GRAY MOLD: - (- = 0-19% control at 400 ppm)
[4]
  POWD MDEW: + (+ = 20-89% control at 400 ppm)
[5]; spray rate 200 ppm
  mortality at 200 ppm: 0%
[5]; spray rate 400 ppm
  mortality at 400 ppm: 40%
[6]
  mortality at 200 ppm: 100%
  mortality at 400 ppm: 0%
[7]
  mortality at 200 ppm: 100%
  mortality at 400 ppm: 0%
[8]
  LEAF RUST: +++ (+++ = 90-100% control at 100 ppm)
[9]
  DOWN MDEW: +++ (+++ = 90-100% control at 100 ppm)

## Oc1ccccc1CCOc1ncnc2ccccc12 [Example 114, 4-[2-(2-hydroxyphenyl)ethoxy]quinazoline]
[1]
  RICE BLAST: - (- = 0-19% control at 400 ppm)
[2]
  mortality at 12 ppm: 0%
  mortality at 24 ppm: 0%
[3]
  GRAY MOLD: - (- = 0-19% control at 400 ppm)
[4]
  POWD MDEW: - (- = 0-19% control at 400 ppm)
[5]; spray rate 200 ppm
  mortality at 200 ppm: 0%
[5]; spray rate 400 ppm
  mortality at 400 ppm: 0%
[6]
  mortality at 200 ppm: 60%
  mortality at 400 ppm: 0%
[7]
  mortality at 200 ppm: 0%
  mortality at 400 ppm: 0%
[8]
  LEAF RUST: + (+ = 20-89% control at 400 ppm)
[9]
  DOWN MDEW: + (+ = 20-89% control at 400 ppm)

## Oc1ccc(CCOc2ncnc3ccccc23)cc1 [Example 115, 4-[2-(4-hydroxyphenyl)ethoxy]quinazoline]
[1]
  RICE BLAST: + (+ = 20-89% control at 400 ppm)
[2]
  mortality at 12 ppm: 0%
  mortality at 24 ppm: 0%
[3]
  GRAY MOLD: - (- = 0-19% control at 400 ppm)
[4]
  POWD MDEW: + (+ = 20-89% control at 400 ppm)
[5]; spray rate 200 ppm
  mortality at 200 ppm: 0%
[5]; spray rate 400 ppm
  mortality at 400 ppm: 0%
[6]
  mortality at 200 ppm: 0%
  mortality at 400 ppm: 0%
[7]
  mortality at 200 ppm: 0%
  mortality at 400 ppm: 0%
[8]
  LEAF RUST: +++ (+++ = 90-100% control at 100 ppm)
[9]
  DOWN MDEW: + (+ = 20-89% control at 400 ppm)

## Fc1cccc2c(OCCc3ccc(-c4ccccc4)cc3)ncnc12 [Example 116, 8-fluoro-4-[2-(1,1'-biphenyl)-4-ylethoxy]quinazoline]
[1]
  RICE BLAST: +++ (+++ = 90-100% control at 100 ppm)
[2]
  mortality at 12 ppm: 0%
  mortality at 24 ppm: 0%
[3]
  GRAY MOLD: - (- = 0-19% control at 400 ppm)
[4]
  POWD MDEW: ++ (++ = 90-100% control at 400 ppm)
[5]; spray rate 200 ppm
  SAW RESULTS %: 0%
[5]; spray rate 400 ppm
  SAW RESULTS %: 0%
[6]
  mortality at 400 ppm: 0%
[7]
  mortality at 400 ppm: 0%
[8]
  LEAF RUST: + (+ = 20-89% control at 400 ppm)
[9]
  DOWN MDEW: +++ (+++ = 90-100% control at 100 ppm)

## Clc1ccc(CCCc2ncnc3ccccc23)cc1 [Example 117, 4-[3-(4-chlorophenyl)propyl]quinazoline]
[1]
  RICE BLAST: ++ (++ = 90-100% control at 400 ppm)
[2]
  mortality at 12 ppm: 0%
  mortality at 24 ppm: 0%
[3]
  GRAY MOLD: - (- = 0-19% control at 400 ppm)
[4]
  POWD MDEW: +++ (+++ = 90-100% control at 100 ppm)
[5]; spray rate 200 ppm
  mortality at 200 ppm: 0%
[5]; spray rate 400 ppm
  mortality at 400 ppm: 0%
[6]
  mortality at 200 ppm: 90%
  mortality at 400 ppm: 0%
[7]
  mortality at 200 ppm: 100%
  mortality at 400 ppm: 0%
[8]
  LEAF RUST: +++ (+++ = 90-100% control at 100 ppm)
[9]
  DOWN MDEW: ++ (++ = 90-100% control at 400 ppm)

## Fc1cccc2c(OCCc3ccc(C(F)(F)F)cc3)ncnc12 [Example 118, 8-fluoro-4-[2-(4-trifluoromethyl)ethoxy]quinazoline]
[1]
  RICE BLAST: +++ (+++ = 90-100% control at 100 ppm)
[2]
  mortality at 12 ppm: 0%
  mortality at 24 ppm: 0%
[3]
  GRAY MOLD: - (- = 0-19% control at 400 ppm)
[4]
  POWD MDEW: +++ (+++ = 90-100% control at 100 ppm)
[5]; spray rate 200 ppm
  mortality at 200 ppm: 60%
[5]; spray rate 400 ppm
  mortality at 400 ppm: 100%
[6]
  mortality at 200 ppm: 100%
  mortality at 400 ppm: 0%
[7]
  mortality at 200 ppm: 100%
  mortality at 400 ppm: 0%
[8]
  LEAF RUST: +++ (+++ = 90-100% control at 100 ppm)
[9]
  DOWN MDEW: +++ (+++ = 90-100% control at 100 ppm)
